# Laboratory results reported in ChEMBL document CHEMBL2074498, “Induction of the multispecific organic anion transporter (cMoat/mrp2) gene and biliary glutathione secretion by the herbicide 2,4,5-trichlorophenoxyacetic acid in the mouse liver” (Biochem J, 1999).
# Legend:
# [1] = molecular target: T1, ATP-binding cassette sub-family C member 2 (Mus musculus, UniProt Q8VI47); experiment: TP_TRANSPORTER: Northern blot in vivo, liver of CF I mouse; format: functional, organism-based
# [2] = molecular target: T1, ATP-binding cassette sub-family C member 2; experiment: TP_TRANSPORTER: Western in vivo, liver of CF I mouse; format: functional, organism-based
# T1 sequence (Q8VI47 whole entry): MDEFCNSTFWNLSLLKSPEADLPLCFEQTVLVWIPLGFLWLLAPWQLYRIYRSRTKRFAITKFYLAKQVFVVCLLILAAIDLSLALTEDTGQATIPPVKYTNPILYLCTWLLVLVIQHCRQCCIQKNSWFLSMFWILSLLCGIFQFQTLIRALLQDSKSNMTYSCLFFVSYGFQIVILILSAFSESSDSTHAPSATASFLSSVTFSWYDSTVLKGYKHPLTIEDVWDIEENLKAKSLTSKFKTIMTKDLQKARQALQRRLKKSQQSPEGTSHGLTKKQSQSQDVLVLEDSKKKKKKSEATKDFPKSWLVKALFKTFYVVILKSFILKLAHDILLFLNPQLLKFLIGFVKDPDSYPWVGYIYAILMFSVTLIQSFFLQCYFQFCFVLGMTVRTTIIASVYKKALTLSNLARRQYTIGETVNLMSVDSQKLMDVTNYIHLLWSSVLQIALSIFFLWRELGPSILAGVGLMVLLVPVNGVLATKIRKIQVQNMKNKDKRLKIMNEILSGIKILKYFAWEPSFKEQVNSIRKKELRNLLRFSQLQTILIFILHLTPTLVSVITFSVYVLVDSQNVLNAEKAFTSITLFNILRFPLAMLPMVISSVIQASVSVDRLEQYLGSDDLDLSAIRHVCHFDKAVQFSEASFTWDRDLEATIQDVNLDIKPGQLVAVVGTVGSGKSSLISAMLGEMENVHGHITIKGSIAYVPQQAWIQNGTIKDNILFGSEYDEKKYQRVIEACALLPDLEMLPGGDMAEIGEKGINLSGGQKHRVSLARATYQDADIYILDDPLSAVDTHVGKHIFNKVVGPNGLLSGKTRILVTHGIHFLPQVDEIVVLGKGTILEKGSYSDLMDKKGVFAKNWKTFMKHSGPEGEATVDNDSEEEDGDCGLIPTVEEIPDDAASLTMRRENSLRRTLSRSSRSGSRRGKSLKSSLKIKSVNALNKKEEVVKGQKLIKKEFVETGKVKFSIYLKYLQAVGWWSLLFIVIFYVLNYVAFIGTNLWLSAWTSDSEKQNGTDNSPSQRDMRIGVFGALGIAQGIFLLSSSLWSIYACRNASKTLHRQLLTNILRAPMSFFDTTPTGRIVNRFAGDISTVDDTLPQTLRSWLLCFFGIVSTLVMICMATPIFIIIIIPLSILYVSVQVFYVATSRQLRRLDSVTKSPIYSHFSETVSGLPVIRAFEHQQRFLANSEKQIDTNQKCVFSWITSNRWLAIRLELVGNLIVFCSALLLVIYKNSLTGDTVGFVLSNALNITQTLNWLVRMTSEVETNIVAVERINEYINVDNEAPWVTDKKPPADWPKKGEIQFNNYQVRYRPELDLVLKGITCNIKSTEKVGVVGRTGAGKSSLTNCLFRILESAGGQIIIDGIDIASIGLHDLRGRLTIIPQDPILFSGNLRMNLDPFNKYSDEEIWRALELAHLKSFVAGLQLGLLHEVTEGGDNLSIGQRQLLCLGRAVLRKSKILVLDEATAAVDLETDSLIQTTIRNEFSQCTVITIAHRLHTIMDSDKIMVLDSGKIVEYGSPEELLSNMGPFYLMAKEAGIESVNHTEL
compound,measurement,setting,value
"O=C(O)COc1cc(Cl)c(Cl)cc1Cl [2,4,5-TRICHLOROPHENOXYACETIC ACID]",Activity,[1],inducer [+]
same,Activity,[2],inducer [+]
